According to patent US20100022639A1, “Methods of Inducing Weight Loss” (The Johns Hopkins University School of Medicine Licensing …, priority 2000, published 2010):

Tests used:
[1] = tested on: acetyl CoA carboxylase (ACC); details: previous studies; cited from earlier work
feeding behavior [2] = experiment: ICV TOFA pretreatment and feeding inhibition by IP C-75; format: in vivo, BALB/c mice; details: 2 μg TOFA ICV, 2 hours later 15 mg/kg C-75 IP, food intake over 2 hours
Experimental: This model predicts that feeding inhibition by FAS inhibitors should be attenuated by inhibitors of ACC's. To test this, mice were pretreated with the ACC inhibitor TOFA or vehicle by ICV injection and examined the ability of C-75, administered IP, to inhibit feeding. BALB/c mice were anesthetized with metofane and injected ICV with 2 μg of TOFA or DMSO vehicle. After 2 hours recovery, mice were injected IP with 15 mg C-75/kg or RPMI vehicle and monitored for total food intake over 2 hours. […] In addition, mice were anesthetized and injected ICV with 2 μl of RPMI or C-75 at 2.5 or 5 μg/μl and food intake monitored over 2 (shaded) and 4 (solid) hours. The efficacy of centrally administered TOFA argues for a central (CNS) mechanism of action. ICV administration of C-75 inhibited feeding by 82% (FIG. 5C), supporting the central target action of C-75. FIGS. 5(B) and (C) combine results from 3 experiments with N=3 for each (9 total).

feeding behavior [3] = experiment: Reversal of C-75 feeding inhibition by intracerebroventricular NPY; format: in vivo, mice; details: 500 ng NPY ICV
Experimental: To confirm this finding, the capacity of NPY to reverse C-75-induced inhibition of feeding was examined. Mice were pretreated with 30_mg/kg of C-75 by I.P. injection. After 4 hours, mice were anaesthetized by inhaled metofane and given a direct intracerebroventricular injection of 500_ng NPY (2.5 μl total volume) or artificial CSF vehicle. Mice were placed into metabolic cages and observed for feeding behavior and monitored for food intake over 18 hours.

Molecule	effect on fatty acid synthesis [1]	effect on feeding [1]	food intake in C-75-treated mice after TOFA pretreatment (feeding behavior [2])	feeding behavior after ICV injection (feeding behavior [3]; mice pretreated with vehicle or C-75)	total food intake in C-75-treated mice (feeding behavior [3]; monitored over 18 hours)
CCCCCCCCCCCCCCOc1ccc(C(=O)O)o1 [TOFA]	inhibition of fatty acid synthesis	did not inhibit feeding	largely restored food intake	–	–
NPY: neuropeptide Y, anabolic neuropeptide produced in the hypothalamus that strongly stimulates feeding; injected ICV	–	–	–	rapidly led to voracious feeding	substantially elevate the total food intake
